Activity and MIC data for 4 compounds are collected here from ChEMBL document CHEMBL1671860, “Role of Cj1211 in natural transformation and transfer of antibiotic resistance determinants in Campylobacter jejuni” (2008).

Values after ≈ are worked out from the molar mass of the structure shown. Active and inactive are the calls of the source. The rule behind the calls is not given here.

By MIC is commonly meant the lowest concentration found to suppress growth. A high value points to a less susceptible organism.

In assay [1] the test system is Campylobacter jejuni. Nature of the assay: Antibacterial activity against Campylobacter jejuni JB201 infected in chicken assessed as decrease in bacterial colonization at 50 mg/L. The assay is classed as functional, organism-based.
The test system of the next assay is Campylobacter. Nature of the assay: Antibacterial activity against Campylobacter by Etest. It counts as functional.
Assay [2] concerns Campylobacter jejuni. Nature of the assay: Antibacterial activity against Cj1211-positive Campylobacter jejuni harboring aphA3 and tet(O) genes. It counts as functional.
In assay [3] the test system is Campylobacter jejuni. Nature of the assay: Antibacterial activity against Cj1211-negative Campylobacter jejuni harboring aphA3 and tet(O) genes. It counts as functional.

`CCN1CCN(c2cc3c(cc2F)c(=O)c(C(=O)O)cn3C2CC2)CC1`: the outcome in the assay with Campylobacter jejuni [1] was Active.

`O=C(O)c1cn(C2CC2)c2cc(N3CCNCC3)c(F)cc2c1=O` [CIPROFLOXACIN] yielded an MIC against Campylobacter above 32 µg/mL.

For the compound `NC[C@H]1O[C@H](O[C@H]2[C@H](O)[C@@H](O[C@H]3O[C@H](CO)[C@@H](O)[C@H](N)[C@H]3O)[C@H](N)C[C@@H]2N)[C@H](O)[C@@H](O)[C@@H]1O` [KANAMYCIN], the MIC against Campylobacter jejuni [2] and against Campylobacter jejuni [3] was above 256 µg/mL each time.

For the compound `CN(C)[C@@H]1C(O)=C(C(N)=O)C(=O)[C@@]2(O)C(O)=C3C(=O)c4c(O)cccc4[C@@](C)(O)[C@H]3C[C@@H]12` [TETRACYCLINE], the MIC in the assay with Campylobacter jejuni [2] and with Campylobacter jejuni [3] was 16 µg/mL (≈ 36 µM) in each case.
